Mortality data for two compounds are collected here from patent publication US20200190073A1, “SUBSTITUTED SUCCINIMIDE DERIVATIVES AS PESTICIDES” (BASF SE, priority 2017, published 2020).

Read-outs that look alike come from different tables or passages of the source. Bounds are passed on as bounds.

What all share (format): in vivo
In test [1] the test system is Vetch Aphid (Megoura viciae). Nature of the test: B.3 Vetch aphid, broad bean leaf disks. The settings on record: foliar, 120 h, 2500 ppm, sprayed leaf disks, 5 days, read-out: mortality in comparison with untreated controls. The procedure:
B.3 Vetch Aphid (Megoura viciae)
For evaluating control of vetch aphid (Megoura viciae) through contact or systemic means the test unit consisted of 24-well-microtiter plates containing broad bean leaf disks.
The compounds were formulated using a solution containing 75% v/v water and 25% v/v DMSO. Different concentrations of formulated compounds were sprayed onto the leaf disks at 2.5 μl, using a custom built micro atomizer, at two replications.
After application, the leaf disks were air-dried and 5-8 adult aphids placed on the leaf disks inside the microtiter plate wells. The aphids were then allowed to suck on the treated leaf disks and incubated at about 23±1° C. and about 50±5% relative humidity for 5 days. Aphid mortality and fecundity was then visually assessed.

The subject of test [2] is Green Peach Aphid (Myzus persicae). Nature of the test: B.2 Green peach aphid, artificial diet, systemic. Particulars: 72 h, 2500 ppm, adult aphids on treated diet, 3 days, read-out: mortality in comparison with untreated controls. From the text:
B.2 Green Peach Aphid (Myzus persicae)
For evaluating control of green peach aphid (Myzus persicae) through systemic means the test unit consisted of 96-well-microtiter plates containing liquid artificial diet under an artificial mem brane.
The compounds were formulated using a solution containing 75% v/v water and 25% v/v DMSO. Different concentrations of formulated compounds were pipetted into the aphid diet, using a custom built pipetter, at two replications.
After application, 5-8 adult aphids were placed on the artificial membrane inside the microtiter plate wells. The aphids were then allowed to suck on the treated aphid diet and incubated at about 23±1° C. and about 50±5% relative humidity for 3 days. Aphid mortality and fecundity was then visually assessed.

Test [3] concerns Diamond back moth (Plutella xylostella). The test is described as follows: CE.6 Diamond back moth, contact activity, comparative test. The settings on record: read-out: % mortality in comparison to untreated controls. The procedure:
(§1) The tables show % mortality in comparison to untreated controls.
CE.6 Diamond Back Moth (Plutella xylostella)
Ten third-instar larvae are sprayed with 1 ml test solution and introduce to untreated leaves held petri dished lined with moist filter paper. Mortality is recorded 24, 72, and 120 hours after treatment.

Test [4] concerns Neotropical Brown Stink Bug (Euschistus heros). The test is described as follows: B.12 Neotropical brown stink bug, dipped pole bean. The settings on record: 120 h, 500 ppm, adults, 5 days, read-out: mortality in comparison with untreated controls. The procedure: B.12 Neotropical Brown Stink Bug (Euschistus heros)
For evaluating control of Euschistus heros through contact the test unit consisted of 100 ml disposable plastic beakers with transparent lids.
The compounds were formulated using a solution containing 50% water and 50% acetone. 50 ml of different concentrations of formulated compounds or mixtures were prepared in a glass petri dish and used for dipping three 6 cm sections of fresh pole bean. Each treatment was replicated eight times.
After application, the pole bean sections were air-dried and 5 adult E. heros placed in each beaker. The E. heros were then allowed to suck on the treated pole bean sections and incubated at 23±1° C., 50±5% RH for 5 days. E. heros mortality was then visually assessed.

Test [5] relates to Red Spider Mite (Tetranychus kanzawai). The test is described as follows: B.9 Red spider mite, sprayed cowpea beans. Particulars: 300 ppm, 72 hours after treatment, read-out: mortality in comparison with untreated controls. The procedure:
B.9 Red Spider Mite (Tetranychus kanzawai)
The active compound was dissolved at the desired concentration in a mixture of 1:1 (vol:vol) distilled water:acetone. Add surfactant (Kinetic HV) was added at a rate of 0.01% (vol/vol).The test solution was prepared at the day of use.
Potted cowpea beans of 4-5 days of age were cleaned with tap water and sprayed with 1-2 ml of the test solution using air driven hand atomizer. The treated plants were allowed to air dry and afterwards inoculated with 30 or more mites by clipping a cassava leaf section from rearing population. Treated plants were placed inside a holding room at about 25-27° C. and about 50-60% relative humidity. Percent mortality was assessed 72 hours after treatment.

Test [6] relates to Brown Marmorated Stink Bug (Halyomorpha halys). Nature of the test: B.13 Brown marmorated stink bug, spray. Particulars: 120 h, 100 ppm, adults, after 5 days, read-out: mortality in comparison with untreated controls. The procedure:
B.13 Brown Marmorated Stink Bug (Halyomorpha halys)
(§2) The active compound was dissolved at the desired concentration in a mixture of 1:1 (vol:vol) distilled water:acetone. Surfactant (Kinetic HV) was added at a rate of 0.01% (vol/vol). The test solution was prepared at the day of use.
Row peanuts and soybean seeds were placed into microwavable plastic cups and inoculated with five adult stage H. halys. Using a hand atomizer, approximately 1 ml solution is sprayed into each cup, insects and food present. A water source was provided (cotton wick with water) Each treatment is replicated 4-fold. Assay arenas are kept at about 25° C. Percent mortality was recorded after 5 days.

In test [7] the test system is Diamond back moth (Plutella xylostella). Nature of the test: B.1 Diamond back moth, cabbage leaf dip. Particulars: foliar, 300 ppm, cabbage leaf dip, 3rd instar larvae, 72 hours after treatment, read-out: mortality in comparison with untreated controls. The procedure: B.1 Diamond back moth (Plutella xylostella)
as §2
Leaves of cabbage were dipped in test solution and air-dried. Treated leaves were placed in petri dishes lined with moist filter paper and inoculated with ten 3rd instar larvae. Mortality was recorded 72 hours after treatment. Feeding damages were also recorded using a scale of 0-100%.

Test [8] relates to Orchid Thrips (Dichromothrips Corbetti). Nature of the test: B.7 Orchid thrips, floral immersion. Particulars: 300 ppm; adult thrips; 72 hours after treatment; read-out: mortality in comparison with untreated controls. The procedure: B.7 Orchid Thrips (Dichromothrips Corbetti)
Dichromothrips corbetti adults used for bioassay were obtained from a colony maintained continuously under laboratory conditions. For testing purposes, the test compound is diluted in a 1:1 mixture of acetone:water (vol:vol), plus Kinetic HV at a rate of 0.01% v/v.
Thrips potency of each compound was evaluated by using a floral-immersion technique. All petals of individual, intact orchid flowers were dipped into treatment solution and allowed to dry in Petri dishes. Treated petals were placed into individual re-sealable plastic along with about 20 adult thrips. All test arenas were held under continuous light and a temperature of about 28° C. for duration of the assay. After 3 days, the numbers of live thrips were counted on each petal. The percent mortality was recorded 72 hours after treatment.

For test [9], the system named is Boll Weevil (Anthonomus grandis). Nature of the test: B.5 Boll weevil, insect diet with eggs. The settings on record: 120 h, 2500 ppm, egg and larval mortality, 5 days, read-out: mortality in comparison with untreated controls. The procedure:
B.5 Boll Weevil (Anthonomus grandis)
For evaluating control of boll weevil (Anthonomus grandis) the test unit consisted of 96-well-microtiter plates containing an insect diet and 5-10 A. grandis eggs.
The compounds were formulated using a solution containing 75% v/v water and 25% v/v DMSO. Different concentrations of formulated compounds were sprayed onto the insect diet at 5 μl, using a custom built micro atomizer, at two replications.
After application, microtiter plates were incubated at about 25±1° C. and about 75±5% relative humidity for 5 days. Egg and larval mortality was then visually assessed.

In test [10] the test system is Green Soldier Stink Bug (Nezara viridula). The test is described as follows: B.11 Green soldier stink bug, sprayed soybean pods. The settings on record: 120 h, 300 ppm, late 3rd instar, after 5 days, read-out: mortality in comparison with untreated controls. The procedure: B.11 Green Soldier Stink Bug (Nezara viridula)
The active compound was dissolved at the desired concentration in a mixture of 1:1 (vol:vol) distilled water:acetone. Surfactant (Kinetic HV) was added at a rate of 0.01% (vol/vol). The test solution was prepared at the day of use. Soybean pods were placed in glass Petri dishes lined with moist filter paper and inoculated with ten late 3rd instar N. viridula. Using a hand atomizer, approximately 2 ml solution is sprayed into each Petri dish. Assay arenas were kept at about 25° C. Percent mortality was recorded after 5 days.

Test [11] deals with Tobacco Budworm (Heliothis virescens). Nature of the test: B.4 Tobacco budworm, insect diet with eggs. Particulars: 120 h, 2500 ppm, egg and larval mortality, 5 days, read-out: mortality in comparison with untreated controls. The procedure: B.4 Tobacco Budworm (Heliothis virescens)
For evaluating control of tobacco budworm (Heliothis virescens) the test unit consisted of 96-well-microtiter plates containing an insect diet and 15-25 H. virescens eggs.
The compounds were formulated using a solution containing 75% v/v water and 25% v/v DMSO. Different concentrations of formulated compounds were sprayed onto the insect diet at 10 μl, using a custom built micro atomizer, at two replications.
After application, microtiter plates were incubated at about 28±1° C. and about 80±5% relative humidity for 5 days. Egg and larval mortality was then visually assessed.

Test [12] deals with Rice Green Leafhopper (Nephotettix virescens). The test is described as follows: B.8 Rice green leafhopper, sprayed rice seedlings. The settings on record: 300 ppm, adults on sprayed rice seedlings, after 72 hours, read-out: mortality in comparison with untreated controls. The procedure: B.8 Rice Green Leafhopper (Nephotettix virescens)
Rice seedlings were cleaned and washed 24 hours before spraying. The active compounds were formulated in 1:1 acetone:water (vol:vol), and 0.01% vol/vol surfactant (Kinetic HV) was added. Potted rice seedlings were sprayed with 5-6 ml test solution, air dried, covered with Mylar cages and inoculated with 10 adults. Treated rice plants were kept at about 28-29° C. and relative humidity of about 50-60%. Percent mortality was recorded after 72 hours.

In test [13] the test system is Southern Armyworm (Spodoptera eridania), 2nd Instar Larvae. Nature of the test: CE.7 Southern armyworm, 2nd instar larvae, comparative test. Particulars: foliar, 96 h, leaf dip, at 4 days, read-out: % mortality in comparison to untreated controls. The procedure:
as §1
CE.7 Southern Armyworm (Spodoptera eridania), 2nd Instar Larvae
The active compounds were formulated in 50:50 acetone:water (vol) and 100 ppm Kinetica™ surfactant.
A pair of first true leaves of Sieva lima bean was dipped into the test solution and allowed to dry. The leaves were then placed in a plastic perforated zip enclosure bag and ten 2nd instar larvae were added. At 4 days, observations were made of mortality and reduced feeding.

Test [14] has as its system Rice Green Leafhopper (Nephotettix virescens). Nature of the test: CE.5 Rice green leafhopper, comparative test. The settings on record: 72 h, read-out: % mortality in comparison to untreated controls.
In test [15] the test system is Silverleaf Whitefly (Bemisia argentifolii). The test is described as follows: CE.4 Silverleaf whitefly, comparative test. Particulars: 72 h, read-out: % mortality in comparison to untreated controls. The procedure: as §1
CE.4 Silverleaf Whitefly (Bemisia argentifolii)
The active compounds were formulated in 50:50 acetone:water (vol:vol) and 100 ppm Kinetica™ surfactant.
Selected cotton plants were grown to the cotyledon state (one plant per pot). The cotyledons were dipped into the test solution to provide complete coverage of the foliage and placed in a well-vented area to dry. Each pot with treated seedling was placed in a plastic cup and 10 to 12 whitefly adults (approximately 3-5 day old) were introduced. The insects were collected using an aspirator and a Tygon® tubing connected to a barrier pipette tip. The tip, containing the collected insects, was then gently inserted into the soil containing the treated plant, allowing insects to crawl out of the tip to reach the foliage for feeding. The cups were covered with a reusable screened lid. Test plants were maintained in the holding room at about 25° C. and about 20-40% relative humidity for 3 days avoiding direct exposure to the fluorescent light (24 hour photoperiod) to prevent trapping of heat inside the cup. Mortality was assessed 3 days after treatment of the plants.

The term mortality denotes the share of the test organisms that died.

As to `CN1C(=O)CC(NC(=O)c2ccc(C3=NOC(c4ccc(F)c(Cl)c4)(C(F)(F)F)C3)c3c2CCC3)C1=O` (stereo not shown) [Compound I-1-11], the mortality at 2500 ppm in test [1], in test [2], in test [9] and in [11] was above 75% throughout. Further, the mortality at 0.1 ppm in test [3] (0.1 ppm, contact activity, third-instar larvae sprayed) turned out to be 75%. Moreover, in [4], the mortality at 500 ppm is above 75%. Besides, the mortality at 300 ppm in [5], in test [7], in test [8], in test [10] and in test [12] was above 75% throughout. Moreover, in test [6], the mortality at 100 ppm was above 75%.

As for `O=C(NC1CCN(CC(F)(F)F)C1=O)c1ccc(C2=NOC(c3cc(Cl)c(F)c(Cl)c3)(C(F)(F)F)C2)c2c1CCC2` (stereo not shown) [Tab. 128, A-9 of WO 2015128358, reference compound], in [3], the mortality at 0.1 ppm came out at 0%. Further, the mortality at 3 ppm in [13] and in [14] was 0% each time. For the same compound, the mortality at 10 ppm in [15] was found to be 50%.
